The source of these data is patent publication US4464300A, “Triazolo benzazepines” (Hoffmann-La Roche Inc., priority 1981, dated 1984).

What is called LD50 is the dose expected to kill half of the subjects tested. High values mean a less toxic substance, low ones a more toxic substance. The ED50 is the dose that gives a 50% effect, or the effect in half of the subjects. A lower ED50 goes with greater potency.

The nature of data set [1]: acute toxicity, single oral administration to mice. The following applies: mouse, in vivo, p.o. From the text:
Some representative members of the class of compound defined by formula I have been investigated in the tests described below, and it has been shown that in rats and monkeys they display pronounced anxiolytic properties. Moreover, the Table contains data concerning the acute toxicity of these compounds (LD50 in the case of single oral administration to mice).

The next data set is described as follows: Anti-pentetrazole Test. Type of data set: in vivo, female mice. The note with it: Mus musculus, po, 0.5 h; p.o., mice, 30 minutes before i.v. pentetrazole; dosage giving convulsive threshold ratio treated:untreated of 2:1; read-out: Anti-pentetrazole test, PR 2.0. As for the experimental part:
The compound to be tested is administered orally to groups of 6 female mice (19-21 g) and 30 minutes later there is administered intravenously (0.375 ml/minute) a 0.5 percent solution of pentetrazole in sodium chloride solution. The time from the beginning of the infusion until tonic stretchings of the hind limbs appear is measured and therefrom there is calculated the dosage of penetetrazole administered up to this point in time, which is denoted as the convulsive threshold dosage. The PR2.0 is that dosage of the test substance which is required in order that the ratio of the convulsive threshold dosage in treated animals to the convulsive threshold dosage in untreated animals amounts to 2:1.

Data set [2] can be described thus: Anti-3-mercaptopropionic Acid Test. The note with it: Mus musculus, po, 0.5 h; p.o., mice, 30 minutes before 48.8 mg/kg i.p. 3-mercaptopropionic acid; Probit method. Type of data set: in vivo, female mice. As for the experimental part: The compound to be tested is administered orally to female mice (19-21 g) and 30 minutes later there are administered i.p. 48.8 mg/kg of 3-mercaptopropionic acid, a dosage which in untreated animals causes after 4 minutes emprosthotonus and tonic stretching of the hind limbs. 12 mice are used per dosage. At least 6 to 8 different dosages are tested. The number of protected test animals per dosage group is determined and the ED50 is determined therefrom by means of the Probit method.

The test system of data set [3] is spontaneous movements of rats. In words: Determination of the Motor Activity. Type of data set: in vivo. The note with it: Rattus norvegicus, po, 2 hours, dosage which reduces mobility to 40% of untreated animals. As for the experimental part: Groups each comprising three rats (200 g) are confined in large cages. The test animals can adapt themselves to the new surroundings for 30 minutes; subsequently the test substance is administered to them orally. The spontaneous movements are registered automatically for 2 hours by means of infrared light barriers. The ED40 is that dosage which reduces to 40% the mobility of the test animals in comparison to the untreated animals.

Another data set deals with rats. Briefly: Conflict Test in Rats. Type of data set: in vivo. The note with it: Rattus norvegicus, po, 30 minutes before 1-hour conflict test; Wilcoxon test; read-out: Conflict test in rats, FSD (first significant anxiolytically-effective dosage). The protocol: The test apparatus is a one-key Skinner box with a feed pellet dispenser. For the testing of potential anxiolytics there are generally used 8 fasted rats per substance and dosage. In this case, there are used rats only which respond to the known anxiolytic chlordiazepoxide.
The test substances, which are dissolved or suspended in a mixture of 10 ml of distilled water and 2 drops of Tween 80, are administered to the test animals with the aid of a probang 30 minutes before the 1-hour conflict test. During the experiment, in which each key press for a feed pellet is combined with a foot-shock (conflict), the number of key operations is registered. In this case, each test animal serves as its own control, in that it is pre-treated once with test substance and once with sodium chloride solution.
The first significant anxiolytically-effective dosage (FSD) is determined with the Wilcoxon test (comparison of pairs) by comparing the number of key operations in the main test (feed pellet+foot-shock, after pre-treatment with test substance) directly with the number of key operations in the control test (feed pellet+foot-shock, after pre-treatment with sodium chloride solution).

A further data set concerns squirrel monkeys. In words: Conflict Test in Monkeys. It is filed as in vivo, male squirrel monkeys. The note with it: for minimal effective dose: Saimiri, in Primates, po, read-out: Conflict test in monkeys, MED (smallest significant effective dosage); for Conflict test in monkeys, HED (highest significant effective dosage): p.o. As for the experimental part:
A two-key Skinner box with a feed pellet dispenser is used as the test apparatus. 13 fasted, male squirrel monkeys weighing 0.8 to 1 kg are used as the test animals. Upon pressing one of the keys the test animals receive a feed pellet on average every 6 minutes. Upon pressing the other key the test animals receive a feed pellet four times more frequently (i.e. on average every 1.5 minutes), but they are simultaneously punished with an electric foot-shock. The foot-shock causes a reduction in the pressing of the key which gives more frequent feed pellets. […] The smallest (MED) and the highest significant effective dosage (HED) are thereby determined.

Turning to `O=c1[nH]nc2n1-c1ccc(Cl)cc1C(c1ccccc1F)=CC2` [Compound A, 8-chloro-6-(2-fluorophenyl)-2,4-dihydro-1H-s-triazolo[4,3-a][1]benzazepin-1-one], the LD50 in data set [1] is > 5000 mg/kg. For the same compound, the ED (2-fold convulsive threshold) in the data set “Anti-pentetrazole Test” came to 4.1 mg/kg. The compound further displayed an ED50 in data set [2] of 6 mg/kg. Further, the ED40 in data set [3] was > 300 mg/kg. In the data set on rats, the minimal effective dose came to 3 mg/kg. For the same compound, in the data set on squirrel monkeys, the minimal effective dose is 1.25 mg/kg and the “Conflict test in monkeys, HED (highest significant effective dosage)” value was > 80 mg/kg.
`NCc1nnc2n1-c1ccc(Cl)cc1C(c1ccccc1F)=CC2` [Compound B, 1-(aminomethyl)-8-chloro-6-(2-fluorophenyl)-4H-s-triazolo[4,3-a][1]benzazepine] registered an LD50 in data set [1] of 1000 to 2000 mg/kg. Moreover, in “Anti-pentetrazole Test”, the ED (2-fold convulsive threshold) came out at 5.8 mg/kg. Further, the ED50 in data set [2] amounted to 3.7 mg/kg. Further, in data set [3], the ED40 is > 100 mg/kg. Also, the minimal effective dose with rats was determined as 100 mg/kg. Further, in the data set on squirrel monkeys, the minimal effective dose stood at 1.25 mg/kg and the “Conflict test in monkeys, HED (highest significant effective dosage)” value stood at 10 mg/kg.
`Cc1nnc2n1-c1ccc(Cl)cc1C(c1ccccc1F)=CC2` [Compound C, 8-chloro-6-(2-fluorophenyl)-1-methyl-4H-s-triazolo[4,3-a][1]benzazepine]: the LD50 in data set [1] was > 5000 mg/kg. The ED (2-fold convulsive threshold) in the data set “Anti-pentetrazole Test” came to 4 mg/kg. The compound also showed an ED50 in data set [2] of 1.9 mg/kg. The compound further displayed an ED40 in data set [3] of 77 mg/kg. Further, in the data set on rats, the minimal effective dose was determined as 3 mg/kg. In the data set on squirrel monkeys, the minimal effective dose came out at 10 mg/kg and the “Conflict test in monkeys, HED (highest significant effective dosage)” value is > 80 mg/kg.
